Consider two substances from paper PMC7108740, “Exploring the molecular structures that confer ligand selectivity for galanin type II and III receptors” (PLoS ONE, 2020).

Assay type in all cases: cell-based
Assay [1] deals with T1, GALR3 single mutant F^265P (Homo sapiens, UniProt O60755).
T1 construct: expressed in transfected cells; host or cells: HEK293 cells stably expressing Gqi
As to the kind of experiment: SRE-luc luciferase assay, GALR3 F265P. As to conditions: GALR3 F^265P; SRE-luc in HEK293 Gqi cells, ligand 6 h; mean ± S.E.; SEM. An excerpt: (§1) For domain swapping between GALR2 and GALR3, individual cDNA fragments of interest were amplified by polymerase chain reaction (PCR) with Pfu polymerase (ELPIS Biotech, Daejeon, Korea) and two specific primers, one corresponding to the 5' or 3' end of the GALR2 or GALR3 cDNA and the other to the region of overlap between the two receptors. The two resulting fragments, one from GALR2 and the other from GALR3, were subjected to a second round of PCR to generate the chimeric cDNAs. To construct single, double-, triple-, pentuple-, hextuple-, and septuple-mutant receptors, amino acids of GALR3 were substituted for the amino acids at the corresponding positions in GALR2 using PCR-based site-directed mutagenesis. All of the chimeric constructs were cloned into the pcDNA3 expression vector at HindⅢ and XbaⅠ sites. The DNA sequences of the chimeras were verified by automatic sequencing. […] The luciferase activity in 50 μl cell extract was determined using a luciferase assay system according to the standard protocol for the Synergy 2 Multi-Mode Microplate Reader (BioTek, Winooski, VT, USA). […] The concentrations of agonists that induced half-maximal stimulation (EC50) were calculated using the GraphPad PRISM5 software (GraphPad software, Inc., San Diego, CA). […]

The target of assay [2] is T2, GALR3 single mutant A^264P (Homo sapiens, UniProt O60755, A264P).
T2 construct: expressed in transfected cells; host or cells: HEK293 cells stably expressing Gqi
T2 sequence (O60755 whole entry A264P): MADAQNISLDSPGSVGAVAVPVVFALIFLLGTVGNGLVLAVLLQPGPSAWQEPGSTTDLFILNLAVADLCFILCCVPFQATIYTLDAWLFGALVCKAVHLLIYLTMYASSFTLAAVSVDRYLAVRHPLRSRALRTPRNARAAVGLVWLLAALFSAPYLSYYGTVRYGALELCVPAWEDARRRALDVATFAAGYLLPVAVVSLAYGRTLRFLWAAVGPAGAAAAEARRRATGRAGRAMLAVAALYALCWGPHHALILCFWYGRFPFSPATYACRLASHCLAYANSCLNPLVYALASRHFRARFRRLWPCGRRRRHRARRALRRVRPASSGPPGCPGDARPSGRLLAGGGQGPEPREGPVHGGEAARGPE
Briefly: SRE-luc luciferase assay, GALR3 A264P. The note with it: GALR3 A^264P; SRE-luc in HEK293 Gqi cells, ligand 6 h; mean ± S.E.; SEM.
Excerpt: as §1

The target of assay [3] is T3, GALR3 single mutant S^266T (Homo sapiens, UniProt O60755, S266T).
T3 construct: expressed in transfected cells; host or cells: HEK293 cells stably expressing Gqi
T3 sequence (O60755 whole entry S266T): as the sequence (O60755 whole entry A264P) above, with P264A, S266T counted along it
As to the kind of experiment: SRE-luc luciferase assay, GALR3 S266T. The note with it: GALR3 S^266T; SRE-luc in HEK293 Gqi cells, ligand 6 h; mean ± S.E.; SEM.
Excerpt: as §1

A further assay has as its target T4, human GALR2 (Homo sapiens, UniProt O43603).
T4 construct: host or cells: HEK293 cells stably expressing Gqi
T4 sequence (O43603 1-387): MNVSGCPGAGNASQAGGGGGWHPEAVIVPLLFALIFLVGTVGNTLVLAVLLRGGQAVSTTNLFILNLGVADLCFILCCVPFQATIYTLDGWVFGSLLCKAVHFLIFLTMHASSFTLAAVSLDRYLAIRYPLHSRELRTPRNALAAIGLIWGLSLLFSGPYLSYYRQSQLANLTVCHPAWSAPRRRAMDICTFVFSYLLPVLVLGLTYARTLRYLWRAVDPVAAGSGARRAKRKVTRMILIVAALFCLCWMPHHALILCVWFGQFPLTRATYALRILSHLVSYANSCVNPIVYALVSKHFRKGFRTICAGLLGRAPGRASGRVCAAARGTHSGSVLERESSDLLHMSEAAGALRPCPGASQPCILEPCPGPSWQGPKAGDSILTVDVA
Briefly: SRE-luc luciferase assay, WT GALR2. As to conditions: SRE-luc in HEK293 Gqi cells, ligand 6 h, mean ± SE, at least three independent experiments, SEM. An excerpt: (§2) The pcDNA3.1 vector was purchased from Invitrogen (San Diego, CA, USA). The serum response element (SRE)-luciferase (SRE-luc) vector containing a single copy of the SRE (CCATATTAGG) conjugated with luciferase was purchased from Stratagene (La Jolla, CA, USA). The cDNAs for human GALR1, GALR2, and GALR3 were obtained from BRN SCIENCE, Inc. The cDNAs were inserted into the EcoRⅠ and XhoⅠ sites of pcDNA3.1.
(§3) HEK293 cells stably expressing the Gqi construct, which allows induction of Gq-dependent signaling pathways upon activation of a Gi-coupled receptor [14, 30], were maintained in Dulbecco's Modified Eagle's Medium (DMEM) in the presence of 10% fetal bovine serum and 1% penicillin and streptomycin. For all transfections, 200 ng DNA (100 ng receptor and 100 ng SRE-luc) mixed with lipofectamine 2000 was applied to 60–80% confluent cells on a multi-well plate according to the manufacturer's instructions (Invitrogen, Carlsbad, CA).
(§4) For luciferase assays, HEK293 Gqi cells were seeded on 48-well plates at a density of 2.5 × 10^4 cells/well one day before transfection. A mixture including 100 ng SRE-luc reporter construct, 100 ng expression plasmid, and lipofectamine 2000 reagent in diluted Opti-MEM (Gibco) was incubated at room temperature for 20 min and then added into each well according to the manufacturer's instructions (Invitrogen, CA, USA). Before exposure to the ligands, the cells were maintained in serum-free DMEM for 16–18 h. Approximately 48 h after transfection, the cells were treated with ligand for 6 h. The cells were then lysed by the addition of 100 μl lysis buffer. The luciferase activity in 50 μl cell extract was determined using a luciferase assay system according to the standard protocol for the Synergy 2 Multi-Mode Microplate Reader (BioTek, Winooski, VT, USA).
(§5) Data analysis was performed by non-linear regression with a sigmoidal dose-response curve. The concentrations of agonists that induced half-maximal stimulation (EC50) were calculated using the GraphPad PRISM5 software (GraphPad software, Inc., San Diego, CA). All data are presented as the mean ± standard error (SE) of at least three independent experiments.

Assay [4] has as its target T5, GALR3 single mutant P^267R (Homo sapiens, UniProt O60755, P267R).
T5 construct: expressed in transfected cells; host or cells: HEK293 cells stably expressing Gqi
As to the kind of experiment: SRE-luc luciferase assay, GALR3 P267R. As to conditions: GALR3 P^267R; SRE-luc in HEK293 Gqi cells, ligand 6 h; mean ± S.E.; SEM.
Excerpt: as §1

A further assay addresses T6, GALR3 (Homo sapiens, UniProt O60755).
T6 sequence (O60755 1-368): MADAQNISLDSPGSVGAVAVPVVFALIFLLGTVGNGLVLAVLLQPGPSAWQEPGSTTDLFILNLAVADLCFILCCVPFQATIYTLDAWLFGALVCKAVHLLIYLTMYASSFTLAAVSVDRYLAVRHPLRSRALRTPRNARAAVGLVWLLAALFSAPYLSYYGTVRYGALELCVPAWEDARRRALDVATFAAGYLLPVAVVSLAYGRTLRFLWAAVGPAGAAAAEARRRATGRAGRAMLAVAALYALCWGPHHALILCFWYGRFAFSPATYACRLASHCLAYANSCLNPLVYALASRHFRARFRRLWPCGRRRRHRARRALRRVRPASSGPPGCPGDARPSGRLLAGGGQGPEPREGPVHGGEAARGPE
As to the kind of experiment: SRE-luc luciferase assay, WT GALR3. As to conditions: SRE-luc in HEK293 Gqi cells, ligand 6 h, mean ± SE, at least three independent experiments, SEM. More on the design: host or cells: HEK293 cells stably expressing Gqi.
Excerpt: as §2, §3, §4, §5

In assay [5] the target is T7, GALR3 single mutant C^272L (Homo sapiens, UniProt O60755, C272L).
T7 construct: expressed in transfected cells; host or cells: HEK293 cells stably expressing Gqi
T7 sequence (O60755 whole entry C272L): as the sequence (O60755 whole entry A264P) above, with P264A, C272L counted along it
Briefly: SRE-luc luciferase assay, GALR3 C272L. As to conditions: GALR3 C^272L; SRE-luc in HEK293 Gqi cells, ligand 6 h; mean ± S.E.; SEM.
Excerpt: as §1

Assay [6] deals with T8, GALR3 septuple (Homo sapiens, UniProt O60755, A190V/A191F/C272L/G192S/L100F/Y103F/Y107H).
T8 construct: expressed in transfected cells; host or cells: HEK293 cells stably expressing pGlosensor-22F cAMP plasmid
T8 sequence (O60755 1-368 L100F/Y103F/Y107H/A190V/A191F/G192S/C272L): T6 sequence (O60755 1-368) with L100F, Y103F, Y107H, A190V, A191F, G192S, C272L
As to the kind of experiment: SRE-luc luciferase assay, GALR3 septuple mutant. The note with it: SRE-luc in HEK293 Gqi cells, ligand 6 h, mean ± SE, SEM. From the text: For domain swapping between GALR2 and GALR3, individual cDNA fragments of interest were amplified by polymerase chain reaction (PCR) with Pfu polymerase (ELPIS Biotech, Daejeon, Korea) and two specific primers, one corresponding to the 5' or 3' end of the GALR2 or GALR3 cDNA and the other to the region of overlap between the two receptors. The two resulting fragments, one from GALR2 and the other from GALR3, were subjected to a second round of PCR to generate the chimeric cDNAs. To construct single, double-, triple-, pentuple-, hextuple-, and septuple-mutant receptors, amino acids of GALR3 were substituted for the amino acids at the corresponding positions in GALR2 using PCR-based site-directed mutagenesis. […]
For luciferase assays, HEK293 Gqi cells were seeded on 48-well plates at a density of 2.5 × 10^4 cells/well one day before transfection. […] The luciferase activity in 50 μl cell extract was determined using a luciferase assay system according to the standard protocol for the Synergy 2 Multi-Mode Microplate Reader (BioTek, Winooski, VT, USA).
Data analysis was performed by non-linear regression with a sigmoidal dose-response curve. The concentrations of agonists that induced half-maximal stimulation (EC50) were calculated using the GraphPad PRISM5 software (GraphPad software, Inc., San Diego, CA). […]

Assay [7] has as its target T8, GALR3 septuple. As to the kind of experiment: cAMP assay (inhibition of forskolin-induced cAMP), GALR3 septuple mutant. The note with it: Glosensor-22F cAMP HEK293 cells, agonist 10 min then forskolin 10 μM, mean ± SE, SEM. As to the method: SPX-induced or Qu-SPX-induced cyclic adenosine monophosphate (cAMP) mobilization was measured in HEK293 cells stably expressing the pGlosensor^TM-22F cAMP plasmid (Promega Corp., Madison, WI, USA). The Glosensor-22F cAMP HEK293 cells were seeded on 96-well plates at a density of 2.0 × 10^4 cells/well 24 h before transfection. A mixture including 100 ng expression plasmid and lipofectamine 2000 reagent in diluted Opti-MEM (Gibco) was incubated at room temperature for 20 min. The mixtures were added into each well according to the manufacturer's instructions (Invitrogen, CA, USA). After 48 h, Glosensor cAMP substrates were added to the transfected cells in CO2-independent media. After 2 h, the cells were incubated with a range of agonist concentrations or vehicle for 10 min and then exposed to foskolin (10 μM). Luminescence was measured for up to 30 min using a Microplate Reader (BioTek, Winooski, VT, USA).
Data analysis was performed by non-linear regression with a sigmoidal dose-response curve. The concentrations of agonists that induced half-maximal stimulation (EC50) were calculated using the GraphPad PRISM5 software (GraphPad software, Inc., San Diego, CA). All data are presented as the mean ± standard error (SE) of at least three independent experiments. […]
A general note: Cyclic AMP is a second messenger, typically raised through Gs and lowered through Gi signalling.

Changes are numbered by the printed parent chain. Ends that are not written are not given here.

One may read the EC50 as the concentration giving half of the maximal effect.

T5 sequence (O60755 whole entry P267R): as the sequence (O60755 whole entry A264P) above, with P264A, P267R counted along it
T1 sequence (O60755 whole entry F265L): as the sequence (O60755 whole entry A264P) above, with P264A, F265L counted along it

For NWTPQAMLYLFGAQ-NH2 [F^11-SPX], the EC50 in [1] was found to be 457 ± 118 nM; in assay [2], 589 ± 200 nM; in assay [3] it was 200 ± 29.7 nM; on human GALR2, 47.9 ± 11.5 nM; in assay [4], 562 ± 173 nM; at GALR3, 490 ± 118 nM. In [5], the EC50 came to 66.1 ± 22.4 nM.
In the case of NWTPNAALYLFGPQ-NH2 [Qu-SPX], the values for the EC50 at GALR3 septuple [6], on human GALR2 and at GALR3 septuple [7] were 1100 ± 163 nM, 87.1 ± 19.5 nM and 794 ± 358 nM, respectively.
